# Patent publication US20180148470A1, “CHOLIC ACID DERIVATIVE, AND PREPARATION METHOD AND MEDICAL USE THEREOF” (Jiangsu Hansoh Pharmaceutical Group Co., Ltd., priority 2015, published 2018)
# pEC50: −log10 of the molar value.
# Columns and labels:
# [1] = target: T1, FXR receptor (Homo sapiens, UniProt Q96RI1); test: FXR receptor binding activity assay (TR-FRET; GST-FXR-LBD / SRC1 fragment); assay type: biochemical; conditions: FXR-LBD binding to SRC1 fragment, agonist rate
# T1 construct: Prepared 2× GST-labeled FXR-LBD/anti-GST Eu mixture to the required volume, the concentration of GST-FXR-LBD was 6 nM; purchased Life Technology Invitrogen PV4835
# T1 sequence (Q96RI1 262-486 limits assumed): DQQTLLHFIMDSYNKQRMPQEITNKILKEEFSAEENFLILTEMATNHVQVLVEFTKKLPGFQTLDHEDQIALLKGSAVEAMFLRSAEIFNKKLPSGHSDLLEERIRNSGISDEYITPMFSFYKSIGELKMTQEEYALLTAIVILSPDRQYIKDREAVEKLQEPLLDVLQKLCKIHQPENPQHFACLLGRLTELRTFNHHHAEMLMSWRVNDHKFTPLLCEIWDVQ
# T1 sequence (Q15788 676-700 partner limits assumed): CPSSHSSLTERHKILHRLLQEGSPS
# Excerpt: FXR Receptor Binding Activity Assay (Time-Resolved Fluorescence Detection Method TR-FRET Method)
# To test the effect of the present compounds on FXR receptor binding, we selected the commercial FXR receptor binding activity assay kit to test the effect of the compounds on FXR and its binding protein fragments (LBD structural domain binds to SRC1 fragment) (kit supplier: Life Technology Invitrogen Catalog: PV4835; cisbio Catalog: 610SAXLA and 61GSTKLA). Specific method was described in the kit instructions. The operation was as follows:
# 1. Prepared 2× GST-labeled FXR-LBD/anti-GST Eu mixture to the required volume, the concentration of GST-FXR-LBD was 6 nM, Eu was 50 nL/well.
# 2. Prepared 2× biotin-labeled SRC1/[…] (SA-APC) mixture to the required volume, the concentration of SRC1 was 1000 nM, and […] was 50 nL/well.
# 3. 2× GST-FXR/Eu and SRC1/SA-APC were mixed in a proportion of 1:1.
# 4. 20 μL of a mixture of GST-FXR/Eu and SRC1/SA-APC was added to a 384-well plate containing the compounds to be tested.
# 5. Centrifuged for 1 minute at 1000 rpm; incubated for 180 minutes at room temperature.
# 6. Time-resolved fluorescence detection: EnVision reader.
# (1) the value at 665 nm divided by the value at 615 nm;
# (2) calculating the agonist rate
# Agonist rate=(X−Min)/(Max−Min)*100% • X represents the 665/615 value for each concentration; • Min represents the 665/615 value without adding compound; • Max represents the 665/615 value of the reference compound.
# [2] = target: T2, FXR (Homo sapiens, UniProt Q96RI1); test: FXR reporter gene expression test (dual luciferase, FXR Gal4 reporter in HepG2 cells); assay type: cell-based; conditions: HepG2 cells transiently transfected with FXR Gal4 reporter, 18 hours
# T2 sequence (Q96RI1 262-486 limits assumed): T1 sequence (Q96RI1 262-486 limits assumed)
# Excerpt: FXR Reporter Gene Expression Test
# To analyze the effect of testing compounds on FXR-regulated gene expression, we used Promega's dual luciferase assay system (Promega #E1980) to detect the effect of the compounds on the FXR reporter gene in HepG2 hepatoma cell line (ATCC #HB-8065), which was transiently transfected with the FXR Gal4 reporter gene fragment. Specific experimental methods are as follows:
# 1. HepG2 Cell Culture and Maintenance
# Cells were digested and cells with appropriate density were grown in 10 mL complete medium and then cultivated for 24 hours under 37° C., 5% CO2 humidity conditions.
# 2. Cell planting and transfection. Transfection reagent was Fugene HD (Promega#E231A)
# (1) The transfection mixture was prepared according to the following table
# (2) The mixture in the tube was vigorously mixed and incubated at room temperature for 15 minutes;
# (3) The cells were digested in the culture dish and counted;
# (4) The cell suspension was diluted to the desired volume of 600,000/mL (96-well plates 100 μL/well);
# (5) The required volume of the transfection mixture was added to the cell suspension, followed by plating at 100 μL/well;
# (6) Incubated for 24 hours under 37° C., 5% CO2 humidity conditions.
# 3. Treatment of the Compound
# (1) 10 mM of mother liquor of the compound was prepared and then serially diluted 3 times with DMSO;
# (2) 10 μL of compound was added to 90 μL of complete medium (10×);
# (3) 5 μL of the solution of the compound (21×) was added to each well;
# (4) Incubated for 18 hours under 37° C., 5% CO2 humidity conditions.
# The firefly luciferase and the renilla luciferase signal (Promega #E1980) were detected by Promega's dual-luciferase assay system.
# (2) Calculating the agonist rate
# Agonist rate=(X−Min)/(Max−Min)*100% • X represents the F/R value of each concentration; • Min represents the F/R value without adding compound; • Max represents the F/R value of the reference compound.
# (3) EC50 was calculated according to GraphPrism 5.0
# [3] = Pharmacokinetic test in rats; assay type: in vivo, Sprague-Dawley (SD) rats; conditions: male SD rats, intragastric administration of 10 mg/kg; for AUC(0-t) / Cmax / Tmax: Sprague-Dawley, rat, po, plasma; for AUC(0-t): read-out: area under the blood concentration-time curve AUC0-t; for Cmax: read-out: peak concentration Cmax; for Tmax: read-out: peak time of blood concentration tmax
# Procedure: Pharmacokinetic Test in Rats
# The pharmacokinetic study of the present invention was performed in rats. The pharmacokinetic behavior of the positive control INT-747 and a representative compound of the present invention, such as Example 14-β, was studied in rats, and their pharmacokinetic characteristics were evaluated.
# (1) Three male Sprague-Dawley (SD) rats were used, which were supplied by Sippr-BK laboratory animal Co. Ltd. Animal Production License No. SOCK (Shanghai) 2008-0016.
# (2) Then, 10 mg of the sample was weighed and added with 10 mL of 0.5% CMC-Na aqueous solution, the mixture was fully shaken to make a 1 mg/ml uniform solution, and the remaining liquid samples were used for quantitative analysis.
# (3) Three male SD rats were intragastrically administered at 10 mg/kg with a volume of 10 mL/kg after fasting for one night.
# (4) About 0.05 mL of underjaw intravenous blood was collected before and 0.5, 1.0, 2.0, 4.0, 6.0, 8.0, 24.0, 30.0 hours after administration, and then placed in a EDTA-K2 test tube. The blood was centrifuged at 6000 rpm for 5 minutes to isolate the plasma, which was stored at −80° C. The rats were feed 4 hours after administration.
# (1) Instruments and Equipment: API 4000 triple quadrupole mass spectrometer, Applied Biosystems, USA; Shimadzu LC-20AD high performance liquid chromatography system, Shimadzu, Japan.
# (2) Condition of chromatography: The chromatographic column was Phenomenex gemiu 5 um C18 50×4.6 mm; mobile phase was acetonitrile: 0.1% TFA aqueous solution (gradient elution); flow rate (ml/min) was 0.8 ml/min.
smiles,measurement,setting,value
"CC[C@H]1[C@@H](O)C2C3CCC([C@H](C)CC4SC(=O)NC4=O)[C@@]3(C)CCC2[C@@]2(C)CC[C@@H](O)C[C@@H]12 (single isomer, unassigned) [Example 14-β]",pEC50,[1],8.40
same,pEC50,[2],7.24
same,AUC(0-t),[3],41800 ng·h/mL
same,Cmax,[3],7580 ng/mL
same,Tmax,[3],60 min
same,exposed quantity in the tested animals compared with positive control INT-747,[3],significantly better than that of the positive control INT-747
"CC[C@H]1[C@@H](O)[C@@H]2[C@H](CC[C@]3(C)[C@@H]([C@H](C)CCC(=O)O)CC[C@@H]23)[C@@]2(C)CC[C@@H](O)C[C@@H]12 [INT-747, reference compound]",AUC(0-t),[3],9030 ng·h/mL
same,Cmax,[3],4410 ng/mL
same,Tmax,[3],30 min
